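These data come from cells grown in 96-well plates and exposed to compound for 48 hours at five concentrations. TGI: total growth inhibition.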 Where a SMILES comes first, the peptide text is derived from it. [ ]: non-standard residue; d: D form. The star is where a group is joined. ξ: configuration not given here. ξD = NC(CC(=O)O)C(=O)O; Boc = CC(C)(C)OC(=O)*; Aib = CC(C)(N)C(=O)O; OBn = c1ccc(CO*)cc1
How the values were obtained:
Experiment in all cases: NCI tumour cell line growth inhibition, 48 h
CCRF-CEM leukemia = test system: CCRF-CEM leukemia
HCT-15 colon = test system: HCT-15 colon
HS 578T breast = test system: HS 578T breast
IGROV1 ovarian = test system: IGROV1 ovarian
MDA-MB-231 breast = test system: MDA-MB-231 breast
NCI-H226 lung = test system: NCI-H226 lung
NCI-H460 lung = test system: NCI-H460 lung
NCI/ADR-RES ovarian = test system: NCI/ADR-RES ovarian
SF-295 CNS = test system: SF-295 CNS
SK-MEL-2 melanoma = test system: SK-MEL-2 melanoma
SK-MEL-28 melanoma = test system: SK-MEL-28 melanoma
SK-MEL-5 melanoma = test system: SK-MEL-5 melanoma
SK-OV-3 ovarian = test system: SK-OV-3 ovarian
SN12C renal = test system: SN12C renal
SNB-75 CNS = test system: SNB-75 CNS
T-47D breast = test system: T-47D breast
U251 CNS = test system: U251 CNS
HL-60(TB) leukemia = test system: HL-60(TB) leukemia

| Structure (SMILES) | TGI (CCRF-CEM leukemia) [µM] | TGI (HCT-15 colon) [µM] | TGI (HS 578T breast) [µM] | TGI (IGROV1 ovarian) [µM] | TGI (MDA-MB-231 breast) [µM] | TGI (NCI-H226 lung) [µM] | TGI (NCI-H460 lung) [µM] | TGI (NCI/ADR-RES ovarian) [µM] | TGI (SF-295 CNS) [µM] | TGI (SK-MEL-2 melanoma) [µM] | TGI (SK-MEL-28 melanoma) [µM] | TGI (SK-MEL-5 melanoma) [µM] | TGI (SK-OV-3 ovarian) [µM] | TGI (SN12C renal) [µM] | TGI (SNB-75 CNS) [µM] | TGI (T-47D breast) [µM] | TGI (U251 CNS) [µM] | TGI (HL-60(TB) leukemia) [µM] |
| --- | --- | --- | --- | --- | --- | --- | --- | --- | --- | --- | --- | --- | --- | --- | --- | --- | --- | --- |
| Nc1nc(Cl)c(N)c(NCC2(CO)CCC(OCc3ccccc3)C2)n1 (stereo not given) | > 100 | > 100 | > 100 | > 100 | > 100 | > 100 | > 100 | > 100 | > 100 | > 100 | > 100 | > 100 | > 100 | > 100 | > 100 | > 100 | > 100 | – |
| CC(C)C1=Cc2ccc3c(c2C(=O)C1=O)CCCC3 | – | 9.03 | 55.9 | 12.1 | 34.1 | 36.1 | 26.6 | 52.1 | 25.8 | 18.8 | 15.8 | 25.6 | 30.5 | 13.1 | 4.76 | 0.567 | 42.4 | 1.95 |
| Cc1cccc2c(N)c3cccc(C(=O)NCC[N+](C)(C)Cc4ccccc4[N+](=O)[O-])c3nc12 | – | > 100 | > 31.2 | > 100 | > 55.6 | > 100 | 16 | > 37.1 | > 50.1 | > 54.6 | > 71.1 | > 41.1 | > 95.1 | > 39.9 | 8.82 | > 100 | > 27.6 | – |
| CC(C)(C)OC(=O)NC(CC(=O)OCc1ccccc1)C(=O)NC(C)(C)C(N)=O (stereo not given) (Boc-[ξD](OBn)-[Aib]-NH2) | > 100 | > 100 | > 100 | > 100 | > 100 | > 100 | > 100 | > 100 | > 100 | > 100 | > 100 | > 100 | > 100 | > 100 | > 100 | > 100 | > 100 | – |
| CCN(CC)CCCNc1ccc([N+](=O)[O-])c2nc3ccccc3c(N)c12 | 2.91 | 2.55 | 1.91 | 2.6 | 2.09 | > 10 | 1.44 | 2.65 | 1.87 | 2.53 | > 10 | 1.53 | 3.4 | > 10 | 2.42 | – | – | 2.92 |
| CCC1C(NC(=O)OC)C(=O)N1[C@@H](C)c1ccccc1 (stereo not given in full) | – | > 100 | > 100 | > 100 | > 100 | > 100 | > 100 | > 100 | > 100 | > 100 | > 100 | > 100 | > 100 | > 100 | > 100 | > 100 | > 100 | – |
| CC(=O)C1C(=O)C(=O)N(c2ccc([N+](=O)[O-])cc2[N+](=O)[O-])C1=O (stereo not given) | > 100 | > 100 | > 100 | > 100 | > 100 | > 100 | > 100 | > 100 | > 100 | > 100 | > 100 | > 100 | > 100 | > 100 | > 100 | – | > 100 | > 100 |
| S=C(NCCc1ccccn1)N/N=C(\c1ccccc1)c1ccccn1 | > 100 | > 86.5 | > 100 | – | > 100 | – | > 100 | 1.44 | > 55.7 | > 100 | > 100 | 40.2 | > 66.2 | > 67.3 | > 78 | > 75.7 | > 100 | > 100 |
| O=C1NC(=O)C(CCC(=O)c2cccc3ccccc23)C(=O)N1 | – | > 100 | > 100 | – | > 100 | > 100 | > 100 | > 100 | > 100 | > 100 | > 100 | > 100 | > 100 | > 100 | > 100 | > 100 | > 100 | > 100 |
| CC(=O)NC1=NC(=O)/C(=C/c2ccccc2Cl)N1C | > 100 | > 100 | > 100 | > 100 | > 100 | > 100 | > 100 | > 100 | > 100 | > 100 | > 100 | > 100 | > 100 | > 100 | > 100 | – | > 100 | > 100 |
| COc1cc(C2c3cc4c(cc3OC(NNC(N)=S)C2C)OCO4)cc(OC)c1OC (stereo not given) | – | > 100 | > 100 | > 100 | 8.68 | 21 | > 100 | > 100 | 0.884 | > 100 | > 100 | – | > 100 | > 100 | > 100 | > 31.6 | > 42.9 | 0.631 |
| CCOC(=O)C1CCCc2sc(N)c(C#N)c21 (stereo not given) | – | > 100 | > 100 | > 100 | > 100 | > 100 | > 100 | – | – | > 100 | > 100 | > 100 | – | > 100 | > 100 | > 100 | > 100 | > 100 |

Source: PubChem BioAssay (NCI)
